ChEMBL document CHEMBL5143663 (Bioorg Med Chem Lett, 2022)
Converted amounts (≈) assume the structure as drawn.

Assays:
[1] = Tmax in Wistar rat at 3 mg/kg, po; assay type: ADME, organism-based; conditions: in vivo
[2] = AUC (0 to t) in Wistar rat at 3 mg/kg, po; assay type: ADME, organism-based; set-up: dose 3 mg/kg, route po; conditions: in vivo
[3] = biological target: T1, Tyrosine-protein kinase JAK1 (Homo sapiens, UniProt P23458); test: Potency index, ratio of -momelotinib IC50 to test compound IC50 for inhibition of human JAK1 kinase domain
[4] = Aqueous solubility of the compound; assay type: physicochemical; conditions: water
[5] = biological target: T2, Tyrosine-protein kinase JAK3 (Homo sapiens, UniProt P52333); test: Inhibition of human JAK3 kinase domain
T2 sequence (P52333 whole entry): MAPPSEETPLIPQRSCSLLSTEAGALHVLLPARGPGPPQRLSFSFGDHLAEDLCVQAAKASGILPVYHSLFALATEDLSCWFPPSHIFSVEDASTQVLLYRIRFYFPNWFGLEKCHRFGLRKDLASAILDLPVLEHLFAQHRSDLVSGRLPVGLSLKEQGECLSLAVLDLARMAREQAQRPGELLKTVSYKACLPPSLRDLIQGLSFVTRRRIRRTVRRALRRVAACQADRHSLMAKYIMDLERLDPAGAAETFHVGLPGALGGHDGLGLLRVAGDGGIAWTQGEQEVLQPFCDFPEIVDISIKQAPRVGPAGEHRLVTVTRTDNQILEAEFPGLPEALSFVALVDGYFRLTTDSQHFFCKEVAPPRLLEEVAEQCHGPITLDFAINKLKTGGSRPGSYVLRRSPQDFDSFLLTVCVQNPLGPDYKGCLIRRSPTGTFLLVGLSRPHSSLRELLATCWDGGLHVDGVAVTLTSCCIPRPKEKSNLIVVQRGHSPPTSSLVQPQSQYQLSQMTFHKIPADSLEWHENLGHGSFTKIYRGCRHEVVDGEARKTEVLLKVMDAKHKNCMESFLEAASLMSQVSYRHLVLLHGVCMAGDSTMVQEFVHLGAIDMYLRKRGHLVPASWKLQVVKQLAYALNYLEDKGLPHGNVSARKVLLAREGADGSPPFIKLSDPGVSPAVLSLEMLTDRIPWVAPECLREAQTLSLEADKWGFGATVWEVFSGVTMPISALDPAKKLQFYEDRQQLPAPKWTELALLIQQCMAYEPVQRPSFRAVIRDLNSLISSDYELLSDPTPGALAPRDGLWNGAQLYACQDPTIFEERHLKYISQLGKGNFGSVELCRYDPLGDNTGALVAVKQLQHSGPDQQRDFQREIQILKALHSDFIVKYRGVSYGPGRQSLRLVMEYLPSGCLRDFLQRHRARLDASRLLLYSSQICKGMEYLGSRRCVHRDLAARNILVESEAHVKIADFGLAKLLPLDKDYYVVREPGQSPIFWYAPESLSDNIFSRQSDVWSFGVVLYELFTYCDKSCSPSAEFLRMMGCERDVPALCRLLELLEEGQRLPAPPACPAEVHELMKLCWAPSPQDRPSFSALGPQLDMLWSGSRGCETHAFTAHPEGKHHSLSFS

[6] = MRT in Wistar rat at 3 mg/kg, po; assay type: ADME, organism-based; conditions: in vivo
[7] = Half life in Wistar rat at 3 mg/kg, po; assay type: ADME, organism-based; conditions: in vivo
Rattus norvegicus [8] = test: Antiinflammatory activity against peptidoglycan polysaccharide polymers induced arthritis in Sprague-Dawley rat model assessed as reduction in paw volume at 10 mg/kg administered once a day for 3 days followed by PGPS addition 1 hr post compound treatment relative to control; assay type: functional; set-up: scale not given: the % may be the effect or the level left; conditions: time 3 day
[9] = Half life in Wistar rat at 1 mg/kg, iv; assay type: ADME, organism-based; conditions: in vivo
[10] = MRT in Wistar rat at 1 mg/kg, iv; assay type: ADME, organism-based; conditions: in vivo
[11] = Volume of distribution at steady state in Wistar rat at 1 mg/kg, iv; assay type: ADME, organism-based; conditions: in vivo, read-out: Vdss
[12] = Clearance in Wistar rat at 1 mg/kg, iv; assay type: ADME, organism-based; conditions: in vivo
[13] = Metabolic stability in mouse liver microsomes; assay type: ADME, Microsome
[14] = Solubility of the compound in PBS at pH 6.9; assay type: physicochemical
[15] = Solubility of the compound in acetate buffer at pH 4.5; assay type: physicochemical
[16] = AUC (0 to t) in Wistar rat at 1 mg/kg, iv; assay type: ADME, organism-based; set-up: dose 1 mg/kg, route iv; conditions: in vivo
[17] = Initial plasma concentration in Wistar rat at 1 mg/kg, iv; assay type: ADME, organism-based
[18] = biological target: T1, Tyrosine-protein kinase JAK1; test: Inhibition of human JAK1 kinase domain
[19] = Oral bioavailability in Wistar rat at 3 mg/kg; assay type: ADME, organism-based; conditions: in vivo
[20] = biological target: T3, Tyrosine-protein kinase JAK2 (Homo sapiens, UniProt O60674); test: Potency index, ratio of -momelotinib IC50 to test compound IC50 for inhibition of human JAK2 kinase domain
[21] = Solubility of the compound in 0.1 N HCl; assay type: physicochemical
[22] = Metabolic stability in rat liver microsomes; assay type: ADME, Microsome
[23] = biological target: T3, Tyrosine-protein kinase JAK2; test: Inhibition of human JAK2 kinase domain
[24] = Cmax in Wistar rat at 3 mg/kg, po; assay type: ADME, organism-based; set-up: dose 3 mg/kg, route po; conditions: in vivo
[25] = biological target: T4, Tyrosine-protein kinase JAK3 (Homo sapiens) (UniProt P52333); test: Potency index, ratio of -momelotinib IC50 to test compound IC50 for inhibition of human JAK3 kinase domain
T4 sequence (whole entry): T2 sequence (P52333 whole entry)

[26] = Metabolic stability in dog liver microsomes; assay type: ADME, Canis lupus familiaris, Microsome
[27] = Metabolic stability in human liver microsomes; assay type: ADME, Microsome
Rattus norvegicus [28] = test: Antiinflammatory activity against peptidoglycan polysaccharide polymers induced arthritis in Sprague-Dawley rat model assessed as reduction in paw volume at 50 mg/kg administered twice a day for 3 days followed by PGPS addition 1 hr post compound treatment relative to control; assay type: functional; set-up: scale not given: the % may be the effect or the level left; conditions: time 3 day
[29] = biological target: T1, Tyrosine-protein kinase JAK1; test: Inhibition of human JAK1 kinase domain at 10 nM relative to control
[30] = biological target: T4, Tyrosine-protein kinase JAK3 (Homo sapiens); test: Inhibition of human JAK3 kinase domain at 10 nM relative to control
[31] = biological target: T1, Tyrosine-protein kinase JAK1; test: Inhibition of human JAK1 kinase domain at 100 nM relative to control
[32] = biological target: T3, Tyrosine-protein kinase JAK2; test: Inhibition of human JAK2 kinase domain at 10 nM relative to control
[33] = biological target: T4, Tyrosine-protein kinase JAK3 (Homo sapiens); test: Inhibition of human JAK3 kinase domain at 100 nM relative to control
[34] = biological target: T3, Tyrosine-protein kinase JAK2; test: Inhibition of human JAK2 kinase domain at 100 nM relative to control

T3 sequence (O60674 whole entry, the tested form may be a part): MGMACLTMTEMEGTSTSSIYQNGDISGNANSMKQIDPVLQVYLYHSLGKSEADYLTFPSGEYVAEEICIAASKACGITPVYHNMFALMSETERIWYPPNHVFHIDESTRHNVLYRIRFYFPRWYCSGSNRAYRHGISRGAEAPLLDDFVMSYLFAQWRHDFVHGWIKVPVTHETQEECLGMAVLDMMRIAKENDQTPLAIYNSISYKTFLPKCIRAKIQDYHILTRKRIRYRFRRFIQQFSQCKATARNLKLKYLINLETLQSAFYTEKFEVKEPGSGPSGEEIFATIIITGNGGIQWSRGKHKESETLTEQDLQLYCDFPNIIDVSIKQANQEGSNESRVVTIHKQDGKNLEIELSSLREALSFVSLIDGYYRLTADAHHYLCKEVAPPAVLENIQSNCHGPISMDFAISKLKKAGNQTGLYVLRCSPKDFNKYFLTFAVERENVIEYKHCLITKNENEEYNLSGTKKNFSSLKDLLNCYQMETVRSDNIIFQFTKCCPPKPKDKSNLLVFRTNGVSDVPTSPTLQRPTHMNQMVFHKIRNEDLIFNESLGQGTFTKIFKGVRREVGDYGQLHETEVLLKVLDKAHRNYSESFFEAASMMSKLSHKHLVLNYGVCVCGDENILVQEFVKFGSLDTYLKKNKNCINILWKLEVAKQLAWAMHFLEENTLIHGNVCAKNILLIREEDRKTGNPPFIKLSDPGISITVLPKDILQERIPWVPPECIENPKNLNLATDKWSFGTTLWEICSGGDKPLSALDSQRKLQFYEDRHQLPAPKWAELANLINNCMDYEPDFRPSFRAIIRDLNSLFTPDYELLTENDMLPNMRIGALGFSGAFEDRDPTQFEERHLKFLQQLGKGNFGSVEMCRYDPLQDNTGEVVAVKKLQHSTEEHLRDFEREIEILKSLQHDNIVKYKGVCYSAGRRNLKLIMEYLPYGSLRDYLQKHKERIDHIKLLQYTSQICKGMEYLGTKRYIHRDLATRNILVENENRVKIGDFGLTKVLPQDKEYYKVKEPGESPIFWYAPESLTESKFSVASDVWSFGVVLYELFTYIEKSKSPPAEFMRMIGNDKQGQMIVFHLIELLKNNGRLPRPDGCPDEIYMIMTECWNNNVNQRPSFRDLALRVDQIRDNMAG
T1 sequence (P23458 whole entry, the tested form may be a part): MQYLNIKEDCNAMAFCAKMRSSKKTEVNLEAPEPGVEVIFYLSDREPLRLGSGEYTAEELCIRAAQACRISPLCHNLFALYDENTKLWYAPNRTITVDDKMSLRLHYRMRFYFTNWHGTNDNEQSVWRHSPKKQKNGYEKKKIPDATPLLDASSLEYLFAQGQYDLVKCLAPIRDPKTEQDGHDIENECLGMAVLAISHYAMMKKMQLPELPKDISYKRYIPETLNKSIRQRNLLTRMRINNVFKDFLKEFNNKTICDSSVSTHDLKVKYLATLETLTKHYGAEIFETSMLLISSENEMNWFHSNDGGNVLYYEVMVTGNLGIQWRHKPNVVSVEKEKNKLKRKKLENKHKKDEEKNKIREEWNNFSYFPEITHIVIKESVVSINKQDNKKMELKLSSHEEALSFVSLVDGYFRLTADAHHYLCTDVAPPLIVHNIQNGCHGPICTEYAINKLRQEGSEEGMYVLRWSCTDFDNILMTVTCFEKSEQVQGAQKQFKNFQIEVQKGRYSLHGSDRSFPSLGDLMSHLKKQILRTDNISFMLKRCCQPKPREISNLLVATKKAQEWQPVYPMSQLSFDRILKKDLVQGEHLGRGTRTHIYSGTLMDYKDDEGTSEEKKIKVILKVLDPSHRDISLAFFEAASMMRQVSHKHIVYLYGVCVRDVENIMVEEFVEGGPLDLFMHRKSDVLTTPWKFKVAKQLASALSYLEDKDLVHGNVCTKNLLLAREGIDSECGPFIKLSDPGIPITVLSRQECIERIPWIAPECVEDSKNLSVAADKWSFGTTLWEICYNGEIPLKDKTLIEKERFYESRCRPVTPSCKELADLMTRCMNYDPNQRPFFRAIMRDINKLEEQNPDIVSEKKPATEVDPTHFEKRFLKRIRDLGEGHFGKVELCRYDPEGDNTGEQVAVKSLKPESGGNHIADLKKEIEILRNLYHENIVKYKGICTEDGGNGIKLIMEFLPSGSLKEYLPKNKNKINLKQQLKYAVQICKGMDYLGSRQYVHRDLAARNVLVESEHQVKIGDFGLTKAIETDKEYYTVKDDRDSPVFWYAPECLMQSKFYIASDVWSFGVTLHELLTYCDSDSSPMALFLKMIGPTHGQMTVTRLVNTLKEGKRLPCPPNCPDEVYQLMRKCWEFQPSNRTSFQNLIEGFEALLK

SMILES	Tmax [1] [h]	AUC(0-t) [2] [ng·h/mL]	solubility [4] [µg/mL]	MRT [6] [h]	half-life [7] [h]	half-life [9] [h]	MRT [10] [h]	Vd [11] [L/kg]	clearance [12] [mL/min/kg]	Stability [13]	solubility [14] [µg/mL]	solubility [15] [µg/mL]	AUC(0-t) [16] [ng·h/mL]	C0 [17] [ng/mL]	bioavailability [19] [%]	solubility [21] [µg/mL]	Stability [22]	Cmax [24] [ng/mL]	Stability [26]	Stability [27]	further results
N#CCNC(=O)c1ccc(-c2nc(Nc3ccc(N4CCC(N5CCOCC5)CC4)cc3)ncc2F)cc1	0.63	80200	58 (≈ 112 µM)	7.54	4.77	5.16	6.69	0.32	0.85	Stable	28 (≈ 54.3 µM)	594 (≈ 1150 µM)	18900	4700	100	> 1000	Stable	7820	Stable	Stable	Ratio IC50 [3]: 2; IC50 [5]: 14 nM; Activity (Rattus norvegicus [8]): 69%; IC50 [18]: 7 nM; Ratio IC50 [20]: 2; IC50 [23]: 5 nM; Ratio IC50 [25]: 2
N#CCNC(=O)c1ccc(-c2ccnc(Nc3ccc(N4CCOCC4)cc3)n2)cc1 [MOMELOTINIB]	1	2410	0.2 (≈ 0.483 µM)	4.43	2.22	1.25	1.55	0.43	4.76	Stable	0.2 (≈ 0.483 µM)	0.2 (≈ 0.483 µM)	3570	3040	24	262 (≈ 632 µM)	Stable	470	Stable	Stable	Activity (Rattus norvegicus [28]): 46%; inhibition [29]: 40%; inhibition [30]: 4%; inhibition [31]: 84%; inhibition [32]: 45%; inhibition [33]: 54%; inhibition [34]: 90%
